In the NIST ThermoML archive (doi:10.1021/je300784x):
Numbers after ± are expanded uncertainties.

Conditions: Liquid, Twin ebulliometer

CCOc1ccccc1O [2-ethoxyphenol]
Conditions	vapor or sublimation pressure [kPa]
380.22 K	2.827 ± 0.015
383.28 K	3.25 ± 0.015
386.29 K	3.72 ± 0.015
391.94 K	4.757 ± 0.015
397.4 K	5.986 ± 0.015
402.92 K	7.506 ± 0.016
408.63 K	9.39 ± 0.016
414.5 K	11.73 ± 0.016
418.79 K	13.71 ± 0.016
423.31 K	16.11 ± 0.016
428.48 K	19.24 ± 0.017
436.26 K	24.89 ± 0.018
445.61 K	33.38 ± 0.019
457.01 K	46.82 ± 0.023
486.03 K	100.76 ± 0.025
